This passage reports TGI results from PubChem BioAssay (NCI).

Each structure is given as a SMILES string.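 These data come from cells grown in 96-well plates and exposed to compound for 48 hours at five concentrations. Definition used: TGI = concentration required for complete inhibition of growth.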

What all share (test): NCI-60 cell line screen, 48 h
For test [1], the system named is ACHN renal.
Test [2] relates to DU-145 prostate.
In test [3] the test system is IGROV1 ovarian.
The subject of test [4] is KM12 colon.
The subject of test [5] is MDA-N.
For test [6], the system named is NCI-H226 lung.
The test system of test [7] is OVCAR-5 ovarian.
In test [8] the test system is OVCAR-8 ovarian.
Test [9] concerns SN12C renal.
For test [10], the system named is SNB-75 CNS.
In test [11] the test system is SR leukemia.
Test [12] deals with SW-620 colon.
In test [13] the test system is HL-60(TB) leukemia.

On to `Nc1nc(SCCc2ccccc2)c2[nH]cnc2n1`, for which the TGI in test [1], in test [2], in test [3], in test [4], in test [5] and in [6] was more than 100 µM in each case. Further, the TGI in test [7], in test [8], in test [9], in test [10], in [11] and in test [12] was more than 100 µM each time.
`Cc1nc2n(c1/C=C1/C(=O)Nc3cccc(Cl)c31)CCS2`: the TGI in [1], in test [2], in test [13], in test [3], in test [4] and in test [5] was more than 100 µM each time. Moreover, the TGI in test [7] was more than 100 µM; in [8], 88.4 µM; in test [9], more than 100 µM; in test [10], 37.5 µM; in test [11], more than 100 µM; in test [12] it was more than 100 µM.
As to `O=C1CC(NC(=O)C(F)(F)F)c2c(Br)sc(N3CCNCC3)c21` (stereo unspecified), the TGI in test [1], in [2], in test [13], in [3], in test [4] and in test [5] was more than 100 µM throughout. Moreover, the TGI in test [6], in test [7], in [8], in [9], in test [10] and in test [12] was more than 100 µM throughout.
`N#CCCC1C(C#N)C2(Cl)CC1(Cl)C(Cl)=C2Cl` (stereo unspecified): the TGI in [1], in test [2], in test [13], in test [3], in test [4] and in [5] was more than 10 µM each time. Further, the TGI in [6], in [7], in test [8], in test [9], in [10] and in test [12] was more than 10 µM each time.
Consider `Cc1ccc(Cl)c2[nH]c(-c3ccccc3)cc(=O)c12`, for which the TGI in [1] is 98.4 µM; in test [2], more than 100 µM; in test [13], more than 100 µM; in test [3] it was more than 100 µM; in test [4] it was more than 100 µM; in [5] it was more than 100 µM. Further, the TGI in [6], in test [7], in [8], in test [9], in test [10] and in test [12] was more than 100 µM each time.
As for `CC(C)(C)OC(=O)NCCCCC1NC(=O)[C@@H]2Cc3c([nH]c4ccccc34)C(C3CCCCC3)N2C1=O` (stereo partly specified), the TGI in test [1], in [2], in [13], in test [3], in test [4] and in test [5] was more than 100 µM throughout. Moreover, the TGI in [6] is more than 100 µM; in [7], more than 100 µM; in [8], more than 100 µM; in test [9], more than 100 µM; in test [11] it was 36.8 µM; in test [12], more than 100 µM.
Turning to `CN(C)C(=O)O/N=C1/C(c2c(O)[nH]c3ccccc23)=Nc2ccccc21`, the TGI in [1] is more than 100 µM; in test [2] it was more than 100 µM; in [13], more than 100 µM; in test [3], 64 µM; in [4], more than 100 µM; in [5], more than 100 µM. Besides, the TGI in [7] was more than 100 µM; in test [8] it was 66.1 µM; in [9], more than 100 µM; in test [10] it was 8.69 µM; in test [11], 35.4 µM; in test [12], more than 100 µM.
On to `COc1cc(C2c3cc4c(cc3OC(N3CCOCC3)C2C)OCO4)ccc1O` (stereo unspecified), for which the TGI is more than 100 µM in [1]; more than 100 µM in test [2]; 23.6 µM in test [13]; more than 100 µM in test [3]; more than 100 µM in test [4]; 4.41 µM in [5]. Also, the TGI in [7] was more than 100 µM; in test [8], more than 100 µM; in [9] it was more than 100 µM; in test [10], more than 58 µM; in [11] it was more than 68.9 µM; in test [12], more than 100 µM.
With `COc1cccc(C(=O)O[C@H]2[C@@H]3[C@]4(OC(C)=O)CO[C@@H]4C[C@H](O)[C@@]3(C)C(=O)[C@H](OC(C)=O)C3=C(C)[C@@H](OC(=O)[C@H](O)[C@@H](NC(=O)OC(C)(C)C)c4ccco4)C[C@]2(O)C3(C)C)c1`, the TGI in test [1] is more than 37.5 µM; in test [2], more than 37.5 µM; in test [3], more than 37.5 µM; in test [4] it was more than 15.2 µM; in [5], 0.0382 µM; in test [6], more than 15.2 µM. The TGI was more than 22.8 µM in test [7]; more than 14.4 µM in [8]; more than 37.5 µM in test [9]; 0.0241 µM in test [10]; more than 14.8 µM in [11]; more than 37.5 µM in test [12].
Take `Cc1cc(Cc2cc(C)c(N)cc2N)c(N)cc1N`: the TGI in [1], in test [2], in test [13], in test [3], in [4] and in [5] was more than 100 µM throughout. For the same molecule, the TGI in test [6], in test [7], in test [8], in test [9], in test [10] and in test [12] was more than 100 µM each time.
For `COc1ccc2c(c1)/C(=C/CCN(C)C)c1ccccc1S2`, the TGI in [1], in test [2], in test [13], in test [4], in test [5] and in test [6] was more than 100 µM each time. The TGI in test [8], in test [9], in [10], in [11] and in test [12] was more than 100 µM in each case.
